This is an account of results in publication PMC9516332 (Frontiers in Oncology, 2022).

Read-outs that look alike come from different tables or passages of the source.

Holding throughout (assay): Kinase panel profiling at 1 µmol/L (MSA or IMAP), percentage inhibition
Common to all, as to format: biochemical

Assay [1] concerns the target T1, panel of 255 wild-type kinases (Homo sapiens, UniProt Q06418).
T1 sequence (Q06418 41-890): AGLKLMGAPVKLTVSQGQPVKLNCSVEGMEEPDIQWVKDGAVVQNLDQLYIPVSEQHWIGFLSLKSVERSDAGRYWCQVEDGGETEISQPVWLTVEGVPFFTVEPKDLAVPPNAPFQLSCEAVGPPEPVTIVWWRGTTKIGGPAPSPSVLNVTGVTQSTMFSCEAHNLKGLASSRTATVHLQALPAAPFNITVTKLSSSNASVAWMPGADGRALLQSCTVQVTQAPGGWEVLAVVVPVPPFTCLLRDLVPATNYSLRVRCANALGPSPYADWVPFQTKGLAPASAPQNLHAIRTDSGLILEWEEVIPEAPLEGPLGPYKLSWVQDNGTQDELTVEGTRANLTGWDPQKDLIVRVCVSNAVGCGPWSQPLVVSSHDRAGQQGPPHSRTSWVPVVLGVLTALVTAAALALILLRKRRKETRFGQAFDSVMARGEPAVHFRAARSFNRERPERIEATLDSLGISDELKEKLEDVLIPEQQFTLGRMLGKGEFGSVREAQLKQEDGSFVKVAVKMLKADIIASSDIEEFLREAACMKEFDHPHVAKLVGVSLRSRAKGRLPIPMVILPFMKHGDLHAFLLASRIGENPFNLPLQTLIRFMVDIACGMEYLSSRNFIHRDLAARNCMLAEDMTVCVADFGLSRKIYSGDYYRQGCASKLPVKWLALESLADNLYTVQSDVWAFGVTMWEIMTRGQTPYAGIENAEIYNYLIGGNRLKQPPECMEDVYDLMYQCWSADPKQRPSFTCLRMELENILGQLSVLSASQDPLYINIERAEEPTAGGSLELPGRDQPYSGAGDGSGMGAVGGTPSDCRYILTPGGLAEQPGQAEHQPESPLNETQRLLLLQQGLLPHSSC
The conditions noted are these: kinase TYRO3; 1 µmol/L single concentration; read-out: %-inhibition at 1 µmol/L, TYRO3.

Assay [2] has as its target panel of 255 wild-type kinases (Homo sapiens, UniProt P11362). The conditions noted are these: kinase FGFR1; 1 µmol/L single concentration; read-out: %-inhibition at 1 µmol/L, FGFR1.
Assay [3] has as its target panel of 255 wild-type kinases (Homo sapiens, UniProt P24941). Conditions: 1 µmol/L single concentration.
Assay [4] addresses panel of 255 wild-type kinases (Homo sapiens, UniProt Q13131). Conditions: AMPKα1/β1/γ1 kinase assay; 1 µmol/L single concentration; read-out: %-inhibition AMPKα1/β1/γ1.
Assay [5] deals with T2, panel of 255 wild-type kinases (Homo sapiens, UniProt P36888).
T2 sequence (P36888 27-993): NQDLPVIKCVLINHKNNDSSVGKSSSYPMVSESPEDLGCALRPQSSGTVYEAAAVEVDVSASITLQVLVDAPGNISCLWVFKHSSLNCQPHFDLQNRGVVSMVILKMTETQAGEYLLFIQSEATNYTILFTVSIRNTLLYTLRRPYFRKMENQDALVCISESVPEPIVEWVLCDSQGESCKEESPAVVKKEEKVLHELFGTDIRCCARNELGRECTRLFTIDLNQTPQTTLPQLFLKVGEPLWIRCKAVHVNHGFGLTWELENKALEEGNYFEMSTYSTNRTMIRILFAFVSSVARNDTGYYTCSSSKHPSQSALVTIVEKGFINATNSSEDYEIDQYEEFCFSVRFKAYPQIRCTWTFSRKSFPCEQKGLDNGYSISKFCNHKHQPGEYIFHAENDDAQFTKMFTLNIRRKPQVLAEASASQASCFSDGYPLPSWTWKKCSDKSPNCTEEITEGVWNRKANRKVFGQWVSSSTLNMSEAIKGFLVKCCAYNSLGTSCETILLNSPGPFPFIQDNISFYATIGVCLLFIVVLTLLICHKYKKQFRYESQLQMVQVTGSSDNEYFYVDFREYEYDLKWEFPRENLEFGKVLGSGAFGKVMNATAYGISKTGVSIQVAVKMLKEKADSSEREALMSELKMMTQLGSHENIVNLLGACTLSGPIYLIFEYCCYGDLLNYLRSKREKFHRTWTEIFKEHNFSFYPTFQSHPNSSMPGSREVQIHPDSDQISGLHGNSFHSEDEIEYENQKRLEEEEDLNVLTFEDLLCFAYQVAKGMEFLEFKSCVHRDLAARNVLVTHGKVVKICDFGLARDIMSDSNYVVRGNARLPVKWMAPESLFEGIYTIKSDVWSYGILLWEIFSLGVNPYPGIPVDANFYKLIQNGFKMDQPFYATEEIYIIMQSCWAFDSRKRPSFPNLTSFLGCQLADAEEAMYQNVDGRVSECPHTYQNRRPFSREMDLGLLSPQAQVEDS
Conditions: kinase FLT3; 1 µmol/L single concentration; read-out: %-inhibition at 1 µmol/L, FLT3.

Assay [6] addresses panel of 255 wild-type kinases (Homo sapiens, UniProt Q9Y6E0). Conditions: MST3; 1 µmol/L single concentration; read-out: %-inhibition, MST3.
Assay [7] concerns the target panel of 255 wild-type kinases (Homo sapiens, UniProt Q04759). The conditions noted are these: kinase PKCθ; 1 µmol/L single concentration; read-out: %-inhibition at 1 µmol/L, PKCθ.
For assay [8], the target named is panel of 255 wild-type kinases (Homo sapiens, UniProt P16591). Conditions: kinase FER; 1 µmol/L single concentration; read-out: %-inhibition at 1 µmol/L, FER.
In assay [9] the target is panel of 255 wild-type kinases (Homo sapiens, UniProt P04626). The conditions noted are these: kinase HER2; 1 µmol/L single concentration; read-out: %-inhibition at 1 µmol/L, HER2.
In assay [10] the target is panel of 255 wild-type kinases (Homo sapiens, UniProt P49761). The conditions noted are these: kinase CLK3; 1 µmol/L single concentration; read-out: %-inhibition at 1 µmol/L, CLK3.
The target of assay [11] is panel of 255 wild-type kinases (Homo sapiens, UniProt Q96GD4). The conditions noted are these: AurB kinase assay; 1 µmol/L single concentration; read-out: %-inhibition AurB.
The target of assay [12] is panel of 255 wild-type kinases (Homo sapiens, UniProt P49841). Conditions: kinase GSK3β; 1 µmol/L single concentration.
The mark [13] stands for this setting: CDK2/CycA2 kinase assay, read-out: %-inhibition CDK2/CycA2.
Where [14] appears, read: CDK2/CycE1 kinase assay, read-out: %-inhibition CDK2/CycE1.

Consider `CO[C@]1(C(=O)N[C@@H](C)c2ccc(-n3cc(F)cn3)nc2)CC[C@H](c2nc(C)cc(Nc3cc(C)[nH]n3)n2)CC1` [pralsetinib], for which the inhibition at 1 µM in [1] stood at 97%; in assay [2], 96%; in assay [3] (setting [13]), 66%; in assay [3] (setting [14]), 58%; in [4], 46%; in [5], 101%. Further, the inhibition at 1 µM in assay [6] was 8%; in [7], -0.598%; in assay [8], 75%; in assay [9], 20%; in [10], 9%; in assay [11], 38%. For the same compound, the inhibition at 1 µM in assay [12] was 51%.
With `CCn1c(=O)c(-c2cc(NC(=O)Nc3ccccc3)c(F)cc2Br)cc2cnc(NC)cc21` [ripretinib], the inhibition at 1 µM was 9.48% in assay [1]; 92% in assay [2]; -11% in [3] (setting [13]); -12% in assay [3] (setting [14]); -10% in assay [4]; 46% in [5]. Besides, the inhibition at 1 µM in assay [6] was -4%; in assay [7] it was -3%; in assay [8], 32%; in [9], 5.51%; in assay [10], -7%; in assay [11], 5%. In addition, the inhibition at 1 µM in assay [12] was -0.349%.
With `COc1ccc(CN2C3CC2CN(c2ccc(-c4cc(OCC(C)(C)O)cn5ncc(C#N)c45)cn2)C3)cn1` [selpercatinib], the inhibition at 1 µM in [1] is 99%; in assay [2], 97%; in assay [3] (setting [13]), 0.89%; in [3] (setting [14]), -15%; in assay [4], 22%; in [5], 99%. Besides, the inhibition at 1 µM is 6% in assay [6]; -2.29% in assay [7]; 35% in assay [8]; 2.47% in assay [9]; 0.425% in assay [10]; 79% in assay [11]. For the same compound, the inhibition at 1 µM in assay [12] came out at 40%.
For `Cn1cnc2c(F)c(Nc3ccc(Br)cc3Cl)c(C(=O)NOCCO)cc21` [selumetinib], the inhibition at 1 µM is 11% in assay [1]; -1.41% in [2]; 1.44% in [3] (setting [13]); -55% in [3] (setting [14]); -2.66% in assay [4]; 52% in assay [5]. Besides, the inhibition at 1 µM in [6] was 3%; in assay [7] it was -0.321%; in [8], 1.22%; in [9], 3%; in assay [10], 7.48%; in [11] it was 12%. Further, in [12], the inhibition at 1 µM was -8%.
Turning to `Cc1cc(Nc2ncnc3ccc(NC4=NC(C)(C)CO4)cc23)ccc1Oc1ccn2ncnc2c1` [tucatinib], the inhibition at 1 µM is 6% in assay [1]; -3.24% in [2]; -0.285% in assay [3] (setting [13]); -36% in assay [3] (setting [14]); -4% in [4]; 48% in [5]. The inhibition at 1 µM in [6] was 10%; in assay [7], 0.763%; in assay [8], 1.35%; in [9] it was 101%; in [10], 5.42%; in [11], -0.568%. Besides, in [12], the inhibition at 1 µM was 8%.
With `C=CC(=O)N1CCC([C@@H]2CCNc3c(C(N)=O)c(-c4ccc(Oc5ccccc5)cc4)nn32)CC1` [zanubrutinib], the inhibition at 1 µM was 5.5% in assay [1]; 4.53% in [2]; -2.82% in [3] (setting [13]); -15% in assay [3] (setting [14]); -5.51% in [4]; 22% in [5]. Besides, the inhibition at 1 µM was 0.0873% in assay [6]; -3% in assay [7]; 0.0146% in [8]; 69% in [9]; -3.73% in assay [10]; -4% in [11]. In addition, the inhibition at 1 µM in [12] was -9%.
